Measurements taken from article PMC3706270 (Immunogenetics, 2011).

Tested on: Mamu-A1*007:01
Type: binding, Macaca mulatta
Conditions: Table 4; for Relative binding (WT): binding relative to the WT epitope

Sequence	Relative binding (WT)	Fold decrease (fold decrease of binding affinity versus WT epitope)
NYIYDRHGDTL [Peptide 3408.0007]	<0.000003	>350000
SQGIRQILFL [Peptide 3408.0014]	0.0035	
YHSNVKEL	1.0	
